# Experimental data: publication PMC7571155, “Design, Synthesis and Biological Investigation of Flavone Derivatives as Potential Multi-Receptor Atypical Antipsychotics” (Molecules, 2020)
# Where two headings read alike, the source gives them in different places.
# Assays:
# [1] = biological target: D2 receptor (Rattus norvegicus, UniProt P61169); assay: D2 receptor radioligand binding (3H-spiperone); details: 3H-spiperone, mean ± SEM of three experiments
# [2] = biological target: 5-HT2A receptor (Rattus norvegicus, UniProt P14842); assay: 5-HT2A receptor radioligand binding (3H-ketanserin); details: rat brain cortex, 3H-ketanserin, mean ± SEM of three experiments
# Sequence of 5-HT2A receptor (P14842 whole entry): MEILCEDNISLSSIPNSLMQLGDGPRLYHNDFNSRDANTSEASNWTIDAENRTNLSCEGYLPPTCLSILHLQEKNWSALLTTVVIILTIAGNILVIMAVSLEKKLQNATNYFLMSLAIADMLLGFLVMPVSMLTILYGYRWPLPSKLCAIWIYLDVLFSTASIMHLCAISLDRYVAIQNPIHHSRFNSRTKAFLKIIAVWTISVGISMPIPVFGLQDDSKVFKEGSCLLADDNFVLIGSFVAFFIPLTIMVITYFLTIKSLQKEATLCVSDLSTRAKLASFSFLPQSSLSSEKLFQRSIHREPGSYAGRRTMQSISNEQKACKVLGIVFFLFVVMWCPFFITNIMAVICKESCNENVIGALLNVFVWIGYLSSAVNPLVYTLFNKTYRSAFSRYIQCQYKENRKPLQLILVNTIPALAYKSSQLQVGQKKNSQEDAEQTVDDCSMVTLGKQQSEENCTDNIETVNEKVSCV
# [3] = biological target: T1, D2L receptor (Homo sapiens, UniProt P14416); assay: Intrinsic activity, FLIPR calcium assay, HEK293/D2L; type: cell-based
# T1 construct: expressed in transfected cells; host or cells: HEK293
# T1 sequence (P14416 whole entry): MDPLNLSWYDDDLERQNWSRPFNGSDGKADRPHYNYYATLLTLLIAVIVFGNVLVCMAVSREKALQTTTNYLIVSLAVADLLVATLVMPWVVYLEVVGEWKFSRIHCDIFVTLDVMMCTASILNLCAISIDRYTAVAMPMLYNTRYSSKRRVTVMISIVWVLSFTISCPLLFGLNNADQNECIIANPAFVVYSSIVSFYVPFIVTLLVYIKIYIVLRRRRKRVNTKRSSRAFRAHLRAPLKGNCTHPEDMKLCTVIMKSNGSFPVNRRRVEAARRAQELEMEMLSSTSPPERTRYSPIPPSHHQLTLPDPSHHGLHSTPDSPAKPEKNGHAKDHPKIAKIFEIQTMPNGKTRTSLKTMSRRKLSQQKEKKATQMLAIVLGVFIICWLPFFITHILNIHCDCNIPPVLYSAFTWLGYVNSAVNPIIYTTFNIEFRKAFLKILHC
# [4] = Receptor Affinity Ki ± SEM D2, rat striatum
# [5] = Receptor Affinity Ki ± SEM 5-HT2A
# [6] = read-out: Receptor Affinity Ki ± SEM D2, rat striatum
# [7] = read-out: Receptor Affinity Ki ± SEM 5-HT2A
# Sequence of D2 receptor (P61169 whole entry): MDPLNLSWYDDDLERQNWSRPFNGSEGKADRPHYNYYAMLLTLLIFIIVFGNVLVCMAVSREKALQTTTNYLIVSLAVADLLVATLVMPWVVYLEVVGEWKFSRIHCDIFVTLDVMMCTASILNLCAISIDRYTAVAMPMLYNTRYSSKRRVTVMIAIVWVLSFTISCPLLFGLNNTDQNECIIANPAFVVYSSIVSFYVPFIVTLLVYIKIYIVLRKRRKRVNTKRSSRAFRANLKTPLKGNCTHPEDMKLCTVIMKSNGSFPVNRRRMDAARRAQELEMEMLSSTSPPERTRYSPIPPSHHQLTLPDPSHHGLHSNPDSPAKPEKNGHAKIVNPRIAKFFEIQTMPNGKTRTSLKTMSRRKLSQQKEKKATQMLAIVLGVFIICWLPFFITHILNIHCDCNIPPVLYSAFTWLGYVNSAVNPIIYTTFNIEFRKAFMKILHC
Compound,melting point [°C],"Ki [1, 4] [nM]","Ki [2, 5] [nM]",also measured
"COc1ccccc1N1CCN(CCCOc2ccc3c(c2)OC(C)(C)CC3=O)CC1 [Compound 6k, 7-(3-(4-(2-Methoxyphenyl)piperazin-1-yl)propoxy)-2,2-dimethylchroman-4-one]",103 to 105,3160 ± 466,33.1 ± 4.5,–
"CC1(C)CC(=O)c2ccc(OCCCCN3CCN(c4ncccn4)CC3)cc2O1 [Compound 6f, 2,2-Dimethyl-7-(4-(4-(pyrimidin-2-yl)piperazin-1-yl)butoxy) chroman-4-one]",128 to 131,> 10000,1140 ± 152,–
"CC1CC(=O)c2ccc(OCCCCN3CCC(c4noc5cc(F)ccc45)CC3)c(Cl)c2O1 (centres unmarked) [Compound 16b, 8-Chloro-7-(4-(4-(6-fluorobenzo[d]isoxazol-3-yl)piperidin-1-yl)butoxy)-2-methylchroman-4-one]",99 to 101,21.4 ± 2.4,8.1 ± 1.1,–
NCCc1ccc(O)c(O)c1 [dopamine],–,–,–,"Activation (10 μM, %) ([3]; D2L, agonist mode, 10 μM, n = 3): 101.3 ± 5.3%"
"CC1(C)CC(=O)c2ccc(OCCCCN3CCN(c4cccc(C(F)(F)F)c4)CC3)cc2O1 [Compound 6c, 2,2-Dimethyl-7-(4-(4-(3-(trifluoromethyl)phenyl)piperazin-1-yl)butoxy) chroman-4-one]",139 to 140,1130 ± 108,147 ± 16.9,–
7-(4-(4-(6-Fluorobenzo[d]isoxazol-3-yl)piperidin-1-yl)butoxy)-5-methylchroman-4-one [Compound 13b],–,–,–,"Ki [1, 6]: 28.9 ± 3.4 nM; Ki [2, 7]: 10.5 ± 1.3 nM"
"O=C1CC2(CCCCC2)Oc2cc(OCCCCN3CCN(c4cccc(Cl)c4Cl)CC3)ccc21 [Compound 9j, 7-(4-(4-(2,3-Dichlorophenyl)piperazin-1-yl)butoxy)spiro[chromane-2,1′-cyclohexan]-4-one]",119 to 121,81.7 ± 9.7,35.8 ± 5.2,–
"O=C1CC2(CCCC2)Oc2cc(OCCCN3CCC(c4noc5cc(F)ccc45)CC3)ccc21 [Compound 9c, 7-(3-(4-(6-Fluorobenzo[d]isoxazol-3-yl)piperidin-1-yl)propoxy)spiro[chromane-2,1′-cyclopentan]-4-one]",91 to 93,18.9 ± 2.1,8.3 ± 0.9,–
"CC1CC(=O)c2ccc(OCCCCN3CCC(c4noc5cc(F)ccc45)CC3)cc2O1 (centres unmarked) [Compound 16a, 7-(4-(4-(6-Fluorobenzo[d]isoxazol-3-yl)piperidin-1-yl)butoxy)-2-methylchroman-4–one]",95 to 97,19.7 ± 2.7,7.9 ± 0.5,–
"CC1(C)CC(=O)c2ccc(OCCCCN3CCN(c4nsc5ccccc45)CC3)cc2O1 [Compound 6i, 7-(4-(4-(Benzo[d]isothiazol-3-yl)piperazin-1-yl)butoxy)-2,2-dimethylchroman-4-one]",119 to 120,26.2 ± 2.7,19.5 ± 2.2,–
"CC1(C)CC(=O)c2ccc(OCCCCN3CCN(Cc4ccc5c(c4)OCO5)CC3)cc2O1 [Compound 6g, 7-(4-(4-(Benzo[d] [1, 3]dioxol-5-ylmethyl)piperazin-1-yl)butoxy)-2,2-dimethylchroman-4-one]",112 to 114,1140 ± 140,380 ± 39.1,–
"COc1ccccc1N1CCN(CCCOc2ccc3c(c2)OC2(CCCCC2)CC3=O)CC1 [Compound 9e, 7-(3-(4-(2-Methoxyphenyl)piperazin-1-yl)propoxy)spiro[chromane-2,1′-cyclohexan]-4-one]",105 to 107,2050 ± 229,93.5 ± 7.9,–
"COc1ccccc1N1CCN(CCCCOc2ccc3c(c2)OC(C)(C)CC3=O)CC1 [Compound 6d, 7-(4-(4-(2-Methoxyphenyl)piperazin-1-yl)butoxy)-2,2-dimethylchroman-4-one]",128 to 130,2350 ± 317,86.8 ± 5.6,–
7-(4-(4-(6-Fluorobenzo[d]isoxazol-3-yl)piperidin-1-yl)butoxy)-8-methylchroman-4-one [Compound 13d],–,–,–,"Ki [1, 6]: 22.9 ± 3.1 nM; Ki [2, 7]: 13.7 ± 1.9 nM"
"CC1(C)CC(=O)c2ccc(OCCCN3CCC(c4noc5cc(F)ccc45)CC3)cc2O1 [Compound 6l, 7-(3-(4-(6-Fluorobenzo[d]isoxazol-3-yl)piperidin-1-yl)propoxy)-2,2-dimethylchroman-4-one]",116 to 118,18.6 ± 2.3,6.7 ± 0.7,–
"CC1Oc2cc(OCCCCN3CCC(c4noc5cc(F)ccc45)CC3)ccc2C(=O)C1C (centres unmarked) [Compound 21, 7-(4-(4-(6-fluorobenzo[d]isoxazol-3-yl)piperidin-1-yl)butoxy)-2,3-dimethylchroman-4-one]",82 to 84,28.4 ± 3.2,2.4 ± 1.9,–
CN1CCc2cc(Cl)c(O)cc2[C@@H](c2ccccc2)C1 [SCH23390],–,–,–,"IC50 ([3]; D2L, antagonist mode, read-out: IC50): 31.6 nM; inhibition at 10 µM ([3]; HEK293, read-out: Inhibition (10 μM, %), D2L, antagonist mode, 10 μM, n = 3): 99.1 ± 3.2%"
"CC1(C)CC(=O)c2ccc(OCCCCN3CCN(c4ccccc4F)CC3)cc2O1 [Compound 6b, 7-(4-(4-(2-Fluorophenyl)piperazin-1-yl)butoxy)-2,2-dimethylchroman-4-one]",135 to 137,777 ± 84.7,72.5 ± 8.4,–
"CC1(C)CC(=O)c2ccc(OCCCCN3CCN(c4ccccn4)CC3)cc2O1 [Compound 6e, 2,2-Dimethyl-7-(4-(4-(pyridin-2-yl)piperazin-1-yl)butoxy) chroman-4-one]",127 to 129,4590 ± 510,722 ± 64.9,–
"O=C1CCOc2cc(OCCCCN3CCC(c4noc5cc(F)ccc45)CC3)ccc21 [Compound 13a, 7-(4-(4-(6-Fluorobenzo[d]isoxazol-3-yl)piperidin-1-yl)butoxy)chroman-4-one]",–,22.5 ± 2.6,9.6 ± 0.8,–
"O=C1CC2(CCCCC2)Oc2cc(OCCCN3CCN(c4ccccc4C(F)(F)F)CC3)ccc21 [Compound 9f, 7-(3-(4-(2-(Trifluoromethyl)phenyl)piperazin-1-yl)propoxy)spiro[chromane-2,1′-cyclohexan]-4-one]",138 to 140,915 ± 90.3,76.7 ± 9.4,–
"CC1(C)CC(=O)c2ccc(OCCCCN3CCN(c4ccccc4)CC3)cc2O1 [Compound 6a, 2,2-Dimethyl-7-(4-(4-phenylpiperazin-1-yl)butoxy) chroman-4-one]",131 to 133,553 ± 68.7,89.8 ± 11.3,–
"O=C1CC2(CCCCC2)Oc2cc(OCCCCN3CCC(c4nsc5ccccc45)CC3)ccc21 [Compound 9k, 7-(4-(4-(Benzo[d]isothiazol-3-yl)piperidin-1-yl)butoxy)spiro[chromane-2,1′-cyclohexan]-4-one]",129 to 130,35.1 ± 4.7,75.6 ± 8.6,–
"Cc1cc2c(cc1OCCCCN1CCC(c3noc4cc(F)ccc34)CC1)OCCC2=O [Compound 13c, 7-(4-(4-(6-Fluorobenzo[d]isoxazol-3-yl)piperidin-1-yl)butoxy)-6-methylchroman-4-one]",91 to 93,25.8 ± 3.9,15.9 ± 2.3,–
"COc1ccccc1N1CCN(CCCOc2ccc3c(c2)OC2(CCCC2)CC3=O)CC1 [Compound 9a, 7-(3-(4-(2-Methoxyphenyl)piperazin-1-yl)propoxy) spiro[chromane-2,1′-cyclopentan]-4-one]",128 to 130,3850 ± 328,72 ± 6.8,–
"COc1ccccc1N1CCN(CCCCOc2ccc3c(c2)OC2(CCCC2)CC3=O)CC1 [Compound 9b, 7-(4-(4-(2-Methoxyphenyl)piperazin-1-yl)butoxy) spiro[chromane-2,1′-cyclopentan]-4-one]",96 to 98,3790 ± 409,61.7 ± 8.6,–
"Cc1cccc(N2CCN(CCCCOc3ccc4c(c3)OC3(CCCCC3)CC4=O)CC2)c1C [Compound 9i, 7-(4-(4-(2,3-Dimethylphenyl)piperazin-1-yl)butoxy)spiro[chromane-2,1′-cyclohexan]-4-one]",138 to 140,154 ± 19.6,67.5 ± 7.4,–
"CC1(C)CC(=O)c2ccc(OCCCCN3CCN(c4cccc5sccc45)CC3)cc2O1 [Compound 6h, 7-(4-(4-(Benzo[b]thiophen-4-yl)piperazin-1-yl)butoxy)-2,2-dimethylchroman-4-one]",–,43.1 ± 5.7,55.2 ± 4.9,–
